pEC50: −log10 of the molar value. Structures can show the parent of a compound that is named as a salt.
Tests used:
[1] = test system: G2M DNA damage checkpoint (pHH3) in HeLa cells; test: Doxorubicin-Induced G2M Checkpoint Abrogation HeLa Cell-Based Acumen Assay; settings: Homo sapiens, 125 nM doxorubicin 24 hours, compound seven hours, Relative EC50
Procedure: An inhibitor of CHK1 will disable the G2M DNA damage checkpoint in p53-minus tumor cells treated with the topoisomerase II inhibitor, doxorubicin. A measurement of G2M checkpoint abrogation is the phosphorylation of histone H3 on serine 10 that occurs after cells traverse the G2M checkpoint and enter mitosis. The following high content imaging assay can be used to measure the phosphorylation of histone H3 in cells. HeLa cells (purchased from ATCC) are cultured in MEM Media (Gibco™) supplemented with 10% (v/v) FBS and plated at 2000 cells per well in poly D-lysine coated clear bottom black plates (BD Biocoat Cat #3504640), 100 μL volume per well. Plates are then incubated in a cell culture incubator for 18-24 hours (37° C., 5% CO2 and 95% relative humidity). […] Plates are scanned with ACUMEN EXPLORER™ Laser-scanning fluorescence microplate cytometers using 488 nm excitation (TTP LABTECH LTC) to measure pHH3 and DNA content including 2 N, and 4 N. The pHH3 positive cells are identified by mean intensity at 519 nm from Alexa 488. […] The final readout for each population is determined by normalizing to the % of total cells producing a final assay output of % pHH3, %2 N and %4 N. 100% activity is then determined by treating cells with the maximum concentration of an inhibitor control compound at 100 nM to determine the final % activity of each compound. […]

[2] = test system: Liposarcoma xenograft models; test: Sarcoma xenograft models by tumor subtype: Liposarcoma; format: in vivo, mouse; settings: age of patients 36-74 years
[3] = test system: ST1547 LMS patient-derived xenograft; test: Xenograft Tumor Model ST1547; format: in vivo, mouse; settings: comparator day 28, p-value <0.001
Procedure: (§1) For all “ST” models (encompassing RMS and LMS), patient-derived xenografts are established from viable human tumor tissue and are serially passaged in animals a limited number of times to maintain tumor heterogeneity. In subcutaneous models, athymic nude mice (Crl:NU(NCr)-Foxn1nu) or CB-17 SCID mice (CRL-CB17/Icr-Prkdcscid/IcrIcoCrl) are injected or implanted unilaterally into the flank with tumor fragments harvested from host animals, each implanted from a specific passage lot. For all studies, measure tumor growth and body weight twice per week beginning on the seventh day after implantation. When tumor size reaches 150-300 mm^3, randomize animals and group into groups of 4-7 animals. Prepare test compound in an appropriate vehicle (e.g. vehicle can be 20% Captisol® in sterile water) and administer subcutaneously for three consecutive days followed by a four day dosing holiday and repeat for a minimum of four weeks. Tumor response is determined by tumor volume measurement performed twice per week during the course of treatment.

[4] = test system: ST550 LMS patient-derived xenograft; test: Xenograft Tumor Model ST550; format: in vivo, mouse; settings: comparator day 31, p-value 0.712
Procedure: as §1

[5] = test system: CTG-0243 OS patient-derived xenograft; test: Xenograft Tumor Model CTG-0243; format: in vivo, mouse; settings: comparator day 22, p-value 0.089
Procedure: The efficacy of 5-(5-(2-(3-aminopropoxy)-6-methoxyphenyl)-1H-pyrazol-3-ylamino)pyrazine-2-carbonitrile methanesulfonic acid monohydrate is measurable in vivo in mouse models of neuroblastomas and human pediatric and adult sarcomas. 5-(5-(2-(3-Aminopropoxy)-6-methoxyphenyl)-1H-pyrazol-3-ylamino)pyrazine-2-carbonitrile methanesulfonic acid monohydrate (10 mg/kg) can be administered subcutaneously to nude mice bearing either cell-derived xenografts (CDX) or patient-derived xenografts (PDX) of human rhabdomyosarcoma, desmoplastic small round cell tumor (DSRCT), osteosarcoma, and Ewing's sarcoma using a 3 day on, 4 day off b.i.d. dosing schedule. Tumor volume and body weight can be measured two times per week. Tumor-specific parameters can be evaluated by immumohistochemistry. […]
For all “ST” models (encompassing RMS and LMS), patient-derived xenografts are established from viable human tumor tissue and are serially passaged in animals a limited number of times to maintain tumor heterogeneity. […] Tumor response is determined by tumor volume measurement performed twice per week during the course of treatment.

COc1cccc(OCCCN)c1-c1cc(Nc2cnc(C#N)cn2)n[nH]1 [Example 2, 5-(5-(2-(3-Aminopropoxy)-6-methoxyphenyl)-1H-pyrazol-3-ylamino)pyrazine-2-carbonitrile dihydrogen chloride salt]
pEC50 [1]: 7.98

COc1cccc(OCCCN)c1-c1cc(Nc2cnc(C#N)cn2)n[nH]1 [Example 5, 5-(5-(2-(3-Aminopropoxy)-6-methoxyphenyl)-1H-pyrazol-3-ylamino)pyrazine-2-carbonitrile methanesulfonic acid monohydrate]
Result of Treatment: Progressive Disease (models) [2]: 7/7 Progressive
% T/C [3]: 5%
% T/C [4]: 94%
% T/C [5]: 43%
